Biological target: T1, DRP1 (Homo sapiens, UniProt O00429)
T1 construct: Human DRIP1 (UniProtID: O00429.4, residues 1-699); made in house; host or cells: Escherichia coli BL21 CodonPlus DE3
Assay: AlphaLISA assay (His-DRP1 / MiD49-GST interaction)
Assay type: binding
Conditions: His-DRP1 200 nM, MiD49-GST 20 nM, GMP-PNP 100 uM
Experimental: Human DRIP1 (UniProtID: O00429.4, residues 1-699), and human MiD49 (UnitProtIS: Q96C03.1, residues 126-454) was cloned into a pET15b vector as an N-terminal His-tag Fusion. All constructs were transformed in Escherichia coli host strain BL21 CodonPlus DE3. Bacteria was grown in LB media with 100 μg/ml ampicillin and 34 μg/ml chloramphenicol in an orbital shaker at 37° C. until OD600 reached 0.4, at which temperature was reduced to 16° C. Recombinant protein expression was expressed for 18 hr by the addition of IPTG at OD600 of about 0.8. All cultures were spun down and bacterial pellets were used for protein purification.
For His-DRP1, the pellets were resuspended in DRP-buffer A (20 mM Tris, 500 KCl, 1.89 β-ME, pH 8.0) and protease inhibitor cocktail (Roche), followed by cell disruption by sonication (400 W, pulse 3 sec on, 3 sec off, total 20 min). The lysate was centrifuged at 20,000 g and then supernatant applied to a preequilibrated Ni-NTA column with DRP-buffer A. The column was extensively washed with buffer A containing 50 mM imidazole. Purified His-DRP1 was eluted with DRP-buffer A containing 250 mM imidazole and dialyzed overnight at 4° C. (18 kDa cutoff) against DRP-buffer A to remove imidazole. For AlphaLISA, the His tag was retained on DRP1 full-length.
For MiD49-GST, the bacterial pellets were resuspended and sonicated in MID lysis buffer (25 mM Tris-HCl, pH 7.5, 500 mM NaCl, 5% glycerol, 1 mM TCEP, and 0.5% CHAPS). The lysate was pre-cleared at 20,300 g before applying to a glutathione column. Unbound proteins were washed using MID-buffer A (25 mM Tris-HCl, pH 7.5, 300 mM NaCl, 5% glycerol, 1 mM TCEP) and MID-buffer B (25 mM Tris-HCl, pH 7.5, 300 mM NaCl, 5% glycerol, 1 mM TCEP, 1 mM GSH). The protein was eluted with MID-buffer C (25 mM Tris-HCl, pH 7.5, 300 mM NaCl, 5% glycerol, 1 mM TCEP, 10 mM GSH). The target protein was concentrated in the ultra-filtration tube with MW cutoff 30 kDa and further purified by size-exclusion chromatography on a Superdex-200 column (GE Healthcare) in buffer A. Fractions containing MiD49-GST (126-454) were pooled, concentrated, flash-frozen as single-use aliquots in liquid nitrogen and stored at −80° C.
A total of 100 nl of compounds were plated in a 384-well AlphaPlate (PerkinElmer, Waltham, MA) at concentrations 100 uM to […] in DMSO (dilution by 3.165 for 11 concentration levels). Recombinant His-DRP1 (200 nM), MiD49-GST (20 nM), and GMP-PNP (100 uM) were mixed in assay buffer (PBS with 1.5% BSA, 1 mM DTT). Five microliters of the protein mixture were added to the plate and incubate at room temperature for 30 min. Glutathione donor beads and nickel chelate acceptor beads were diluted and mixed in assay buffer to obtain 40 μg/ml of each bead. Five microliters of the mixed beads were added to each well on the microplate leading to a final bead concentration of 20 µg/ml per well. The sealed plate was incubated at room temperature for 60 min and protected from light. The AlphaLISA signal was detected with an EnVision Multilabel Reader (excitation at 680 and emission 615 nm). GraphPad Prism was used to calculate the IC50 by applying sigmoidal dose-response fit (variable slope).

T1 sequence (O00429 1-699 isoform O00429-4): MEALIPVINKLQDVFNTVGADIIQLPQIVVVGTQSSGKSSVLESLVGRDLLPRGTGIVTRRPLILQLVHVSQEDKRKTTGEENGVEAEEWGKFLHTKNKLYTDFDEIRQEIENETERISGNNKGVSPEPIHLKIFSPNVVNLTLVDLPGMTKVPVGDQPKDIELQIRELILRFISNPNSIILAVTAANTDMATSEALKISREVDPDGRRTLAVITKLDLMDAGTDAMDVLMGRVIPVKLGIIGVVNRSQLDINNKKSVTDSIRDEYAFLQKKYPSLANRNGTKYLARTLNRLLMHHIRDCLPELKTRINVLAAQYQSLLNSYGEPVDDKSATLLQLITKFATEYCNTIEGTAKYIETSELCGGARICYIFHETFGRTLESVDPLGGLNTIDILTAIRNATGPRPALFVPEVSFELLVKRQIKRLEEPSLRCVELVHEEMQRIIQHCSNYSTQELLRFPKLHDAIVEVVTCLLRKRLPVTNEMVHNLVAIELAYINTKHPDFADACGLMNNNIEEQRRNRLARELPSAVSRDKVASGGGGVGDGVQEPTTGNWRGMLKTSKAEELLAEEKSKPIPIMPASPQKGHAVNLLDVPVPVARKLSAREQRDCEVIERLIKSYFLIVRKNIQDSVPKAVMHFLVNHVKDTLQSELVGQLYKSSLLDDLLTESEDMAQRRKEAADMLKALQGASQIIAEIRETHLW

| Compound | IC50 |
| --- | --- |
| COCCOc1cc(-c2cncs2)nc2ccc(NC(=O)C(F)(F)CO)cc12 [Example 27, 2,2-difluoro-3-hydroxy-N-(4-(2-methoxyethoxy)-2-(thiazol-5-yl)quinolin-6-yl)propanamide] | 500 to 1000 nM |
| COCCOc1cc(-c2cncs2)nc2ccc(NC(=O)C3CC3C)cc12 (stereo not shown) [Example 18, N-(4-(2-methoxyethoxy)-2-(thiazol-5-yl)quinolin-6-yl)-2-methylcyclopropane-1-carboxamide] | < 500 nM |
| COCCOc1cc(-c2cncs2)nc2ccc(NC(=O)[C@@H](C)O)cc12 [Example 15, (R)-2-hydroxy-N-(4-(2-methoxyethoxy)-2-(thiazol-5-yl)quinolin-6-yl)propanamide] | 1000 to 10000 nM |
| COCCOc1cc(-c2cncs2)nc2ccc(NC(=O)C(C)COC)cc12 (stereo not shown) [Example 32, 3-methoxy-N-(4-(2-methoxyethoxy)-2-(thiazol-5-yl)quinolin-6-yl)-2-methylpropanamide] | 500 to 1000 nM |
| COCCOc1cc(-c2cncs2)nc2ccc(NC(=O)CO)cc12 [Example 13, 2-hydroxy-N-(4-(2-methoxyethoxy)-2-(thiazol-5-yl)quinolin-6-yl) acetamide] | 1000 to 10000 nM |
| COCCOc1cc(-c2cncs2)nc2ccc(NC(=O)[C@@H]3C[C@H]3C#N)cc12 (racemic) [Example 19, trans-2-cyano-N-(4-(2-methoxyethoxy)-2-(thiazol-5-yl)quinolin-6-yl)cyclopropane-1-carboxamide] | 500 to 1000 nM |
| COCCOc1cc(-c2cncs2)nc2ccc(NC(=O)[C@H]3C[C@@H](O)C3)cc12 [Example 16, cis-3-hydroxy-N-(4-(2-methoxyethoxy)-2-(thiazol-5-yl)quinolin-6-yl)cyclobutane-1-carboxamide] | < 500 nM |
| COC[C@H](C)Oc1cc(-c2cncs2)nc2ccc(NC(=O)[C@H](C)OC)cc12 [Example 50, (S)-2-methoxy-N-(4-(((S)-1-methoxypropan-2-yl)oxy)-2-(thiazol-5-yl)quinolin-6-yl)propanamide] | 1000 to 10000 nM |
| COC[C@H](C)Oc1cc(-c2cncs2)nc2ccc(NC(=O)C(C)C#N)cc12 (stereo partly drawn) [Example 48, 2-cyano-N-(4-(((S)-1-methoxypropan-2-yl)oxy)-2-(thiazol-5-yl)quinolin-6-yl)propanamide] | 500 to 1000 nM |
| COCCOc1cc(-c2cncs2)nc2ccc(NC(=O)[C@H](C)OC)cc12 [Example 36, (S)-2-methoxy-N-(4-(2-methoxyethoxy)-2-(thiazol-5-yl)quinolin-6-yl)propanamide] | < 500 nM |
| O=C(Nc1ccc2nc(-c3cncs3)cc(OCCO)c2c1)C(F)(F)F [Example 10, 2,2,2-trifluoro-N-(4-(2-hydroxyethoxy)-2-(thiazol-5-yl)quinolin-6-yl)acetamide] | 1000 to 10000 nM |
| COC[C@@H](C)Oc1cc(-c2cncs2)nc2ccc(NC(=O)[C@H](C)OC)cc12 [Example 51, (S)-2-methoxy-N-(4-(((R)-1-methoxypropan-2-yl)oxy)-2-(thiazol-5-yl)quinolin-6-yl)propanamide] | > 10000 nM |
| COCCOc1cc(-c2cncs2)nc2ccc(NC(=O)[C@@H](C)OC)cc12 [Example 37, (R)-2-methoxy-N-(4-(2-methoxyethoxy)-2-(thiazol-5-yl)quinolin-6-yl)propanamide] | < 500 nM |
| COCCOc1cc(-c2cncs2)nc2ccc(NC(=O)[C@H]3C[C@H](OC)C3)cc12 [Example 34, trans-3-methoxy-N-(4-(2-methoxyethoxy)-2-(thiazol-5-yl)quinolin-6-yl)cyclobutane-1-carboxamide] | > 10000 nM |
| CCOc1cc(-c2cncs2)nc2ccc(NC(=O)C34CC(C3)C4)cc12 [Example 4, N-(4-ethoxy-2-(thiazol-5-yl)quinolin-6-yl)bicyclo[1.1.1]pentane-1-carboxamide] | 500 to 1000 nM |
| COCCOc1cc(-c2cncs2)nc2ccc(NC(=O)C34CC(C3)C4)cc12 [Example 31, N-(4-(2-methoxyethoxy)-2-(thiazol-5-yl)quinolin-6-yl)bicyclo[1.1.1]pentane-1-carboxamide] | 1000 to 10000 nM |
| Cc1cn(-c2cc(OC3CC3)c3cc(NC(=O)C4COC4)ccc3n2)cn1 [Example 43, N-(4-cyclopropoxy-2-(4-methyl-1H-imidazol-1-yl)quinolin-6-yl)oxetane-3-carboxamide] | 1000 to 10000 nM |
| CCOc1cc(-n2cnc(C)c2)nc2c(C)cc(NC(=O)C3COC3)cc12 [Example 54, N-(4-ethoxy-8-methyl-2-(4-methyl-1H-imidazol-1-yl)quinolin-6-yl)oxetane-3-carboxamide] | 1000 to 10000 nM |
| COCCOc1cc(-n2cnc(C3CC3)c2)nc2ccc(NC(=O)C3COC3)cc12 [Example 40, N-(2-(4-cyclopropyl-1H-imidazol-1-yl)-4-(2-methoxyethoxy)quinolin-6-yl)oxetane-3-carboxamide] | < 500 nM |
| COCCOc1cc(-c2cncs2)nc2ccc(NC(=O)[C@H](C)O)cc12 [Example 14, (S)-2-hydroxy-N-(4-(2-methoxyethoxy)-2-(thiazol-5-yl)quinolin-6-yl)propanamide] | 1000 to 10000 nM |

Next, values leading:

| IC50 | Compound |
| --- | --- |
| 1000 to 10000 nM | CCOc1cc(-c2cnc(Cl)s2)nc2ccc(NC(=O)C3COC3)cc12 [Example 12, N-(2-(2-chlorothiazol-5-yl)-4-ethoxyquinolin-6-yl)oxetane-3-carboxamide] |
| 1000 to 10000 nM | COC[C@@H](C)Oc1cc(-c2cncs2)nc2ccc(NC(=O)C3COC3)cc12 [Example 52, (R)—N-(4-((1-methoxypropan-2-yl)oxy)-2-(thiazol-5-yl)quinolin-6-yl)oxetane-3-carboxamide] |
| 500 to 1000 nM | CCOc1cc(-c2cnc(C3CC3)s2)nc2ccc(NC(=O)C3COC3)cc12 [Example 8, N-(2-(2-cyclopropylthiazol-5-yl)-4-ethoxyquinolin-6-yl) oxetane-3-carboxamide] |
| 500 to 1000 nM | COc1cc(-c2cncs2)nc2ccc(NC(=O)C3COC3)cc12 [Example 5, N-(4-methoxy-2-(thiazol-5-yl)quinolin-6-yl) oxetane-3-carboxamide] |
| < 500 nM | COCCOc1cc(-n2cnc(C)c2)nc2ccc(NC(=O)C3COC3)cc12 [Example 41, N-(4-(2-methoxyethoxy)-2-(4-methyl-1H-imidazol-1-yl)quinolin-6-yl)oxetane-3-carboxamide] |
| < 500 nM | CCOc1cc(-c2cnc(OC)s2)nc2ccc(NC(=O)C3COC3)cc12 [Example 7, N-(4-ethoxy-2-(2-methoxythiazol-5-yl)quinolin-6-yl) oxetane-3-carboxamide] |
| 500 to 1000 nM | CCOc1cc(-n2cnc(Cl)c2)nc2ccc(NC(=O)C3COC3)cc12 [Example 44, N-(2-(4-chloro-1H-imidazol-1-yl)-4-ethoxyquinolin-6-yl)oxetane-3-carboxamide] |
| < 500 nM | COCCOc1cc(-c2cncs2)nc2ccc(NC(=O)C3COC3)cc12 [Example 1, N-(4-(2-methoxyethoxy)-2-(thiazol-5-yl)quinolin-6-yl)oxetane-3-carboxamide] |
| 500 to 1000 nM | COCCOc1cc(-c2cnc(C)s2)nc2ccc(NC(=O)C3COC3)cc12 [Example 11, N-(4-(2-methoxyethoxy)-2-(2-methylthiazol-5-yl)quinolin-6-yl)oxetane-3-carboxamide] |
| < 500 nM | CCOc1cc(-c2cncs2)nc2ccc(NC(=O)C3COC3)cc12 [Example 3, N-(4-ethoxy-2-(thiazol-5-yl)quinolin-6-yl)oxetane-3-carboxamide] |
| < 500 nM | COCCOc1cc(-c2cncs2)nc2ccc(NC(=O)C3CCCOC3)cc12 (stereo not shown) [Example 23, N-(4-(2-methoxyethoxy)-2-(thiazol-5-yl)quinolin-6-yl)tetrahydro-2H-pyran-3-carboxamide] |

From patent US20260125372A1, “DYNAMIN-1-LIKE PROTEIN INHIBITORS AND USES THEREOF” (Astellas Engineered Small Molecules US, Incorporated, priority 2022, published 2026)
